Several values for one entry are separate records, joined by “and”; a condition that tells them apart may be missing. Identical values can stand only once. Toxic doses and inconclusive results are not listed. No stated cut-off is given here; in the data, active means T/C of 150% or more; inactive means T/C below 125%.
Tested on: L1210 leukemia ip in BDF1 mice, survival T/C
Assay: NCI In Vivo Anticancer Drug Screen. Data for tumor model L1210 Leukemia (intraperitoneal) in B6D2F1 (BDF1) mice
Details: endpoint: mean survival time, higher = longer survival
Outline: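 Mice bearing the transplanted tumor received compound or vehicle. Survival of the treated group was divided by that of the vehicle-treated control group to give the ratio.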

[1] = dose: 100.0 mg/kg/injection, schedule: Q04DX002 (ip), vehicle: Klucel (hydroxypropylcellulose) (HPC)
[2] = dose: 200.0 mg/kg/injection, schedule: Q04DX002 (ip), vehicle: Klucel (hydroxypropylcellulose) (HPC)
[3] = dose: 400.0 mg/kg/injection, schedule: Q04DX002 (ip), vehicle: Klucel (hydroxypropylcellulose) (HPC)
[4] = dose: 100.0 mg/kg/injection, schedule: Q04DX003 (ip), vehicle: saline with Tween-80
[5] = dose: 200.0 mg/kg/injection, schedule: Q04DX003 (ip), vehicle: saline with Tween-80
[6] = dose: 400.0 mg/kg/injection, schedule: Q04DX003 (ip), vehicle: saline with Tween-80
[7] = dose: 50.0 mg/kg/injection, schedule: Q01DX009 (ip), vehicle: Klucel (hydroxypropylcellulose) (HPC)
[8] = dose: 100.0 mg/kg/injection, schedule: Q01DX001 (ip), vehicle: Klucel (hydroxypropylcellulose) (HPC)
[9] = dose: 100.0 mg/kg/injection, schedule: Q01DX009 (ip), vehicle: Klucel (hydroxypropylcellulose) (HPC)
[10] = dose: 200.0 mg/kg/injection, schedule: Q01DX001 (ip), vehicle: Klucel (hydroxypropylcellulose) (HPC)
[11] = dose: 400.0 mg/kg/injection, schedule: Q01DX001 (ip), vehicle: Klucel (hydroxypropylcellulose) (HPC)
[12] = dose: 100.0 mg/kg/injection, schedule: Q04DX003 (ip), vehicle: Klucel (hydroxypropylcellulose) (HPC)
[13] = dose: 200.0 mg/kg/injection, schedule: Q04DX003 (ip), vehicle: Klucel (hydroxypropylcellulose) (HPC)
[14] = dose: 400.0 mg/kg/injection, schedule: Q04DX003 (ip), vehicle: Klucel (hydroxypropylcellulose) (HPC)
[15] = dose: 6.25 mg/kg/injection, schedule: Q04DX003 (ip), vehicle: saline
[16] = dose: 100.0 mg/kg/injection, schedule: Q01DX005 (ip), vehicle: saline
[17] = dose: 200.0 mg/kg/injection, schedule: Q01DX005 (ip), vehicle: saline
[18] = dose: 100.0 mg/kg/injection, schedule: Q01DX001 (ip), vehicle: saline
[19] = dose: 25.0 mg/kg/injection, schedule: Q04DX003 (ip), vehicle: Klucel (hydroxypropylcellulose) (HPC)
[20] = dose: 50.0 mg/kg/injection, schedule: Q04DX003 (ip), vehicle: Klucel (hydroxypropylcellulose) (HPC)

Measured: T/C

O=C(O)c1cc([N+](=O)[O-])ccc1Cl
inactive: [1] 117 % of control | [2] 103 % of control | [3] 98 % of control

CN(C)c1ccc(/C=C(\C#N)c2ccc([N+](=O)[O-])cc2)c(Cl)c1
inactive: [4] 91 % of control | [5] 96 % of control | [6] 96 % of control

CCOC(=O)c1[nH]c(C)c(CCC(=O)OC)c1C
inactive: [7] 103 % of control | [8] 95 % of control | [9] 107 % of control | [10] 93 % of control | dose: 300.0 mg/kg/injection, schedule: Q01DX009 (ip), vehicle: Klucel (hydroxypropylcellulose) (HPC) 100 % of control | [11] 95 % of control

CCCCNCCC(=O)c1ccc(Cl)cc1
inactive: dose: 6.25 mg/kg/injection, schedule: Q01DX009 (ip), vehicle: saline with Tween-80 98 % of control | dose: 12.5 mg/kg/injection, schedule: Q01DX009 (ip), vehicle: saline with Tween-80 100 % of control | dose: 25.0 mg/kg/injection, schedule: Q01DX009 (ip), vehicle: saline with Tween-80 94 % of control

N=C(c1ccccc1)C1SCCCS1
inactive: [12] 103 % of control | [13] 97 % of control | [14] 97 % of control

CCN(CC)Cc1cc(-n2cnc3c(Cl)ncnc32)ccc1O
inactive: [15] 101 % of control | dose: 12.5 mg/kg/injection, schedule: Q04DX003 (ip), vehicle: saline 103 % of control | dose: 25.0 mg/kg/injection, schedule: Q04DX003 (ip), vehicle: saline 96 % of control

CC(=O)OC1C2CCC(C2)C1C (stereo unspecified)
inactive: dose: 100.0 mg/kg/injection, schedule: Q01DX009 (ip), vehicle: saline with Tween-80 98 % of control | dose: 200.0 mg/kg/injection, schedule: Q01DX009 (ip), vehicle: saline with Tween-80 104 % of control | dose: 400.0 mg/kg/injection, schedule: Q01DX009 (ip), vehicle: saline with Tween-80 96 % of control

CCOP(=S)(N/N=C1/CCCC(C)C1)OCC (stereo unspecified)
inactive: dose: 100.0 mg/kg/injection, schedule: Q01DX001 (ip), vehicle: carboxymethylcellulose (CMC) 93 % of control | dose: 200.0 mg/kg/injection, schedule: Q01DX001 (ip), vehicle: carboxymethylcellulose (CMC) 93 % of control | dose: 400.0 mg/kg/injection, schedule: Q01DX001 (ip), vehicle: carboxymethylcellulose (CMC) 97 % of control

CCOC(=O)c1ccc(Oc2ncc([N+](=O)[O-])s2)cc1
inactive: dose: 1.56 mg/kg/injection, schedule: Q01DX001 (ip), vehicle: saline 107 % of control | dose: 1.56 mg/kg/injection, schedule: Q04DX003 (ip), vehicle: saline 96 % of control | dose: 3.12 mg/kg/injection, schedule: Q01DX001 (ip), vehicle: saline 110 % of control | dose: 3.12 mg/kg/injection, schedule: Q04DX003 (ip), vehicle: saline 100 % of control | dose: 6.25 mg/kg/injection, schedule: Q01DX001 (ip), vehicle: saline 98 % of control | [15] 96 % of control | dose: 9.2 mg/kg/injection, schedule: Q04DX003 (ip), vehicle: saline 103 % of control | dose: 14.0 mg/kg/injection, schedule: Q04DX003 (ip), vehicle: saline 98 % of control | dose: 21.0 mg/kg/injection, schedule: Q04DX003 (ip), vehicle: saline 96 % of control | dose: 29.0 mg/kg/injection, schedule: Q04DX003 (ip), vehicle: saline with Tween-80 103 % of control | dose: 29.0 mg/kg/injection, schedule: Q04DX003 (ip), vehicle: saline 93 % of control | dose: 45.0 mg/kg/injection, schedule: Q04DX003 (ip), vehicle: saline 102 % of control | dose: 65.0 mg/kg/injection, schedule: Q04DX003 (ip), vehicle: saline with Tween-80 86 % of control

CCOC(=O)/C(C#N)=C\c1ccc(N(CC)CC)cc1
inactive: [8] 91 % of control | [10] 86 % of control | [11] 89 % of control

CCOC(=O)/C=C(/CC(=O)OCC)OCC
inactive: dose: 50.0 mg/kg/injection, schedule: Q01DX005 (ip), vehicle: saline 104 % of control | [16] 94 % of control | [17] 96 % of control | dose: 400.0 mg/kg/injection, schedule: Q01DX005 (ip), vehicle: saline 100 % of control

Cc1ccc(S(=O)(=O)Nc2ccccc2-c2nc3ccc(C)cc3c(=O)o2)cc1
inactive: [4] 88 % of control | [5] 94 % of control | [6] 116 % of control

O=S(=O)(/N=C(Cl)/C(Cl)=N/S(=O)(=O)c1ccccc1)c1ccccc1
inactive: [12] 95 % of control | [13] 100 % of control | [14] 95 % of control

O=C(Nc1ccc(Cl)cc1)Oc1ccc(C2CCCCC2)cc1
inactive: [1] 100 % of control | [2] 107 % of control | [3] 110 % of control

O=C1C2CCCCC2C(=O)N1C1=NC=NC2=NC=NC21 (stereo unspecified)
inactive: [4] 98 % of control | [5] 101 % of control | [6] 95 % of control

CCOC(=O)c1ccc(NCc2nnc3nc(N)nc(N)c3n2)cc1
inactive: dose: 50.0 mg/kg/injection, schedule: Q01DX001 (ip), vehicle: saline with Tween-80 103 % of control | dose: 100.0 mg/kg/injection, schedule: Q01DX001 (ip), vehicle: saline with Tween-80 98 % of control | dose: 200.0 mg/kg/injection, schedule: Q01DX001 (ip), vehicle: saline with Tween-80 97 % of control

CSc1nc(N)c2c(=O)c(C(N)=O)cn(C3OC(CO)C(O)C3O)c2n1 (stereo unspecified)
inactive: [16] 95 % of control | [17] 93 % of control

CCCCCCCCS(=O)(O)=S.[Fe]
inactive: dose: 75.0 mg/kg/injection, schedule: Q01DX001 (ip), vehicle: saline 93 % of control | dose: 150.0 mg/kg/injection, schedule: Q01DX001 (ip), vehicle: saline 91 % of control | dose: 300.0 mg/kg/injection, schedule: Q01DX001 (ip), vehicle: saline 91 % of control

Cc1ccc(Cl)c(NC(=O)c2ccccc2Cl)c1
inactive: [1] 97 % of control | [2] 97 % of control | [3] 104 % of control

O=[N+]([O-])CCCl
inactive: dose: 2.5 mg/kg/injection, schedule: Q04DX003 (ip), vehicle: Klucel (hydroxypropylcellulose) (HPC) 104 % of control | dose: 5.0 mg/kg/injection, schedule: Q01DX009 (ip), vehicle: saline 105 % of control | dose: 5.0 mg/kg/injection, schedule: Q04DX003 (ip), vehicle: Klucel (hydroxypropylcellulose) (HPC) 103 % of control | dose: 10.0 mg/kg/injection, schedule: Q01DX009 (ip), vehicle: saline 106 % of control | dose: 10.0 mg/kg/injection, schedule: Q04DX003 (ip), vehicle: Klucel (hydroxypropylcellulose) (HPC) 95 % of control | dose: 20.0 mg/kg/injection, schedule: Q01DX009 (ip), vehicle: saline 117 % of control | dose: 20.0 mg/kg/injection, schedule: Q04DX003 (ip), vehicle: Klucel (hydroxypropylcellulose) (HPC) 89 % of control

Cc1nnc(Cl)c2ccccc12
inactive: [18] 95 % of control

O=C(O)c1cnc(Cl)c(Br)c1
inactive: [4] 94 % of control | [5] 94 % of control | [6] 96 % of control

COc1ccc(C(O)CNC(=O)c2ccccc2)cc1 (stereo unspecified)
inactive: [19] 102 % of control | [20] 97 % of control | [18] 96 % of control | [12] 87 % of control | dose: 200.0 mg/kg/injection, schedule: Q01DX001 (ip), vehicle: saline 104 % of control | dose: 400.0 mg/kg/injection, schedule: Q01DX001 (ip), vehicle: saline 98 % of control | [14] 109 % of control

C=CCOCC(O)CN(CCC(C)C)CCC(C)C (stereo unspecified)
inactive: dose: 25.0 mg/kg/injection, schedule: Q01DX009 (ip), vehicle: Klucel (hydroxypropylcellulose) (HPC) 95 % of control | [7] 97 % of control | [9] 96 % of control and 100 % of control | [12] 102 % of control | [13] 91 % of control

CC(C)C(C#N)(CCCCN1CCOCC1)c1cccc2ccccc12 (stereo unspecified)
inactive: [19] 93 % of control | [20] 103 % of control | [12] 92 % of control

Source: PubChem BioAssay AID248 (DTP/NCI, 2004)
